Measured values as given in patent US7964591B2, “Pyridazine derivatives and their use as therapeutic agents” (Novartis Pharma AG, priority 2003, dated 2011).

What follows are molecules tested against T1, stearoyl-CoA desaturase (SCD) (Mus musculus, UniProt P13516) (assay: Stearoyl-CoA desaturase inhibition using mouse liver microsomes (HTS microsomal assay, IC50 follow-up)). Conditions: % SCD enzyme activity remaining at 10 μM test compound.
T1 sequence (P13516 1-355): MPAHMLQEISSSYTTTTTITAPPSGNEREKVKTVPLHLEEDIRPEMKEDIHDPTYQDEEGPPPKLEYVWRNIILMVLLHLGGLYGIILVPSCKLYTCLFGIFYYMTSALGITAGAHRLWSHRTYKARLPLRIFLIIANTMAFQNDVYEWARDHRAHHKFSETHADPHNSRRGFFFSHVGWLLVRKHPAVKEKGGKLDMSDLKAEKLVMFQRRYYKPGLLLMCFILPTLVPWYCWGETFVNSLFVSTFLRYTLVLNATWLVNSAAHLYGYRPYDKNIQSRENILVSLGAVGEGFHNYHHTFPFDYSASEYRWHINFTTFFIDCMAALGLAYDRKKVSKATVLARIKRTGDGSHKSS
Protocol: Livers are immediately rinsed with cold 0.9% NaCl solution, weighed and minced with scissors. All procedures are performed at 4° C. unless specified otherwise. Livers are homogenized in a solution (1:3 w/v) containing 0.25 M sucrose, 62 mM potassium phosphate buffer (pH 7.0), 0.15 M KCl, 1.5 mM N-acetyleysteine, 5 mM MgCl2, and 0.1 mM EDTA using 4 strokes of a Potter-Elvehjem tissue homogenizer. The homogenate is centrifuged at 10,400×g for 20 min to eliminate mitochondria and cellular debris. The supernatant is filtered through a 3-layer cheesecloth and centrifuged at 105,000×g for 60 min. The microsomal pellet is gently resuspended in the same homogenization solution with a small glass/teflon homogenizer and stored at −70° C. The absence of mitochondrial contamination is enzymatically assessed. The protein concentration is measured using bovine serum albumin as the standard.
The tubes are vortexed vigorously and after 15 min incubation in a shaking water bath (37° C.), the reactions are stopped and fatty acids are analyzed.
Fatty acids are analyzed as follows: The reaction mixture is saponified with 10% KOH to obtain free fatty acids which are further methylated using BF3 in methanol. […] Fatty acid methyl esters are separated isocratically with acetonitrile/water (95:5 v:v) at a flow rate of 1 mL/min and are identified by comparison with authentic standards.
The compounds are analyzed with an HTS microsomal assay. The activities are defined in terms of % SCD enzyme activity remaining at the selected concentration (e.g., 10 μM) of the test compounds.
`CC(=CC(=O)N1CCN(c2ccc(C(=O)NCCC(C)C)nn2)CC1)C(F)(F)F` [6-[4-(4,4,4-TRIFLUORO-3-METHYLBUT-2-ENOYL)PIPERAZIN-1-YL]-PYRIDAZINE-3-CARBOXYLIC ACID (3-METHYLBUTYL)AMIDE] was tested, and the “Mouse Microsome 10% remaining @ 10 μM” value was 9%.
With `CC(C)CCNC(=O)c1ccc(N2CCN(C(=O)CC(C)C(F)(F)F)CC2)nn1` (centres unmarked) [6-[4-(4,4,4-TRIFLUORO-3-METHYLBUTYRYL)PIPERAZIN-1-YL]PYRIDAZINE-3-CARBOXYLIC ACID (3-METHYLBUTYL)AMIDE] the “Mouse Microsome 10% remaining @ 10 μM” value was 11%.
For `CC(C)CCNC(=O)c1ccc(N2CCN(C(=O)CCC(F)(F)F)CC2)nn1` [6-[4-(4,4,4-TRIFLUOROBUTYRYL)PIPERAZIN-1-YL]PYRIDAZINE-3-CARBOXYLIC ACID (3-METHYLBUTYL)AMIDE], the “Mouse Microsome 10% remaining @ 10 μM” value was 42%.
In the case of `O=C(NCCC1CC1)c1ccc(N2CCN(Cc3ccc(F)cc3C(F)(F)F)CC2)nn1` [6-[4-(4-FLUORO-2-TRIFLUOROMETHYLBENZYL)-PIPERAZIN-1-YL]PYRIDAZINE-3-CARBOXYLIC ACID (2-CYCLOPROPYLETHYL)AMIDE], the “Mouse Microsome 10% remaining @ 10 μM” value is reported as 12%.
With `CC(C)CCNC(=O)c1ccc(N2CCN(C(=O)N3CCN(C)CC3)CC2)nn1` [6-[4-(4-METHYLPIPERAZINE-1-CARBONYL)PIPERAZIN-1-YL]PYRIDAZIN E-3-CARBOXYLIC ACID (3-METHYLBUTYL)AMIDE] the “Mouse Microsome 10% remaining @ 10 μM” value was 29%.
For `CC(C)CCNC(=O)c1ccc(N2CCN(C(=O)c3cnccc3C(F)(F)F)CC2)nn1` [6-[4-(4-TRIFLUOROMETHYLPYRIDINE-3-CARBONYL)PIPERAZIN-1-YL]PYRIDAZINE-3-CARBOXYLIC ACID (3-METHYLBUTYL)AMIDE], the “Mouse Microsome 10% remaining @ 10 μM” value was 8%.
In the case of `O=C(NCCC1CC1)c1ccc(N2CCN(C(=O)c3cc(Cl)ccc3C(F)(F)F)CC2)nn1` [6-[4-(5-CHLORO-2-TRIFLUOROMETHYLBENZOYL)PIPERAZIN-1-YL]PYRIDAZINE-3-CARBOXYLIC ACID (2-CYCLOPROPYLETHYL)AMIDE], the “Mouse Microsome 10% remaining @ 10 μM” value is reported as 12%.
With `O=C(NCCC1CC1)c1ccc(N2CCN(Cc3cc(Cl)ccc3C(F)(F)F)CC2)nn1` [6-[4-(5-CHLORO-2-TRIFLUOROMETHYLBENZYL)PIPERAZIN-1-YL]PYRIDAZINE-3-CARBOXYLIC ACID (2-CYCLOPROPYLETHYL)AMIDE] the “Mouse Microsome 10% remaining @ 10 μM” value was 7%.
`O=C(NCCC1CC1)c1ccc(N2CCN(Cc3cc(F)ccc3C(F)(F)F)CC2)nn1` [6-[4-(5-FLUORO-2-TRIFLUOROMETHYLBENZYL)PIPERAZIN-1-YL]PYRIDAZINE-3-CARBOXYLIC ACID (2-CYCLOPROPYLETHYL)AMIDE] was tested, and the “Mouse Microsome 10% remaining @ 10 μM” value was 3%.
In the case of `O=C(NCCCC1CC1)c1ccc(N2CCN(Cc3cc(F)ccc3C(F)(F)F)CC2)nn1` [6-[4-(5-FLUORO-2-TRIFLUOROMETHYLBENZYL)PIPERAZIN-1-YL]PYRIDAZINE-3-CARBOXYLIC ACID (3-CYCLOPROPYLPROPYL)AMIDE], the “Mouse Microsome 10% remaining @ 10 μM” value is reported as 8%.
In the case of `O=C(NCCC1CC1)c1ccc(N2CCN(C(=O)c3ccccn3)CC2)nn1` [6-[4-(PYRIDINE-2-CARBONYL)PIPERAZIN-1-YL]PYRIDAZINE-3-CARBOXYLIC ACID (2-CYCLOPROPYLETHYL)AMIDE], the “Mouse Microsome 10% remaining @ 10 μM” value is reported as 94%.
With `CC(c1ccccc1C(F)(F)F)N1CCN(c2ccc(C(=O)NCCC3CC3)nn2)CC1.Cl` (centres unmarked) [6-{4-[1-(2-TRIFLUOROMETHYLPHENYL)ETHYL]PIPERAZIN-1-YL}-PYRIDAZINE-3-CARBOXYLIC ACID (2-CYCLOPROPYLETHYL)AMIDE HYDROCHLORIDE] the “Mouse Microsome 10% remaining @ 10 μM” value was 24%.
In the case of `O=C(NCCC1CC1)c1ccc(N2CCN(C(=O)Cc3ccccc3C(F)(F)F)CC2)nn1` [6-{4-[2-(2-TRIFLUOROMETHYLPHENYL)ACETYL]PIPERAZIN-1-YL}PYRIDAZINE-3-CARBOXYLIC ACID (2-CYCLOPROPYLETHYL)AMIDE], the “Mouse Microsome 10% remaining @ 10 μM” value is reported as 10%.
`CC(=O)Oc1ccccc1C(=O)N1CCN(c2ccc(C(=O)NCCC3CC3)nn2)CC1` [ACETIC ACID 2-{4-[6-(2-CYCLOPROPYLETHYLCARAMOYL)PYRIDAZIN-3-YL]-PIPERAZINE-1-CARBONYL}PHENYL ESTER] was tested, and the “Mouse Microsome 10% remaining @ 10 μM” value was 46%.
